US7863248B2, “Tyrosinase activity inhibitor and ameliorant for facial blood flow” (Meiji Seika Kaisha, Ltd., priority 2003, dated 2011)

System: mushroom-derived tyrosinase
Experiment: Tyrosinase activity inhibition (dopachrome formation from L-dopa, absorbance at 490 nm)
Type: biochemical
Details: for Inhibitory Rate (%): 37° C., 30 minutes; for tyrosinase inhibitory activity compared with comparative drugs: comparison in words
Procedure: As test substances, the composition prepared in Example 1 and four types of anthocyanin crystal prepared in Example 2 were used. To a 96-well plate, 40 μl of mushroom-derived tyrosinase (125 unit/ml; dissolved in a 67 mmol/l phosphate buffer solution; […] Sigma), and 40 μl of an inhibitor solution were added. The plate was allowed to stand for 37° C. for 30 minutes. Then, the amount of dopachrome produced was determined by absorbance at 490 nm. Tyrosinase inhibitory activity was expressed as an inhibitory rate obtained by the following equation: Inhibitory Rate (%)=[([…]: absorbance at 490 nm of a control solution • B: absorbance at 490 nm of a control solution (blank solution) • C: absorbance at 490 nm of an anthocyanin solution • D: absorbance at 490 nm of an anthocyanin solution (blank solution).

SMILES | Inhibitory Rate (%) (inhibitor concentration 10 mM (2.7 mg/ml)) | tyrosinase inhibitory activity compared with comparative drugs | Inhibitory Rate (%) (inhibitor concentration 0.2 mM)
OC[C@H]1O[C@@H](Oc2ccc(O)cc2)[C@H](O)[C@@H](O)[C@@H]1O [Arbutin, reference compound] | 10.4% |  | 
OC[C@H]1O[C@@H](Oc2cc3c(O)cc(O)cc3[o+]c2-c2ccc(O)c(O)c2)[C@H](O)[C@@H](O)[C@@H]1O [C3G (Example 2), cyanidin-3-glucoside] |  | tyrosinase inhibitory activity at the same level as that found in comparative drugs such as kojic acid, arbutin | 45.0%
OC[C@H]1O[C@@H](Oc2cc3c(O)cc(O)cc3[o+]c2-c2cc(O)c(O)c(O)c2)[C@H](O)[C@@H](O)[C@@H]1O [D3G (Example 2), delphinidin-3-glucoside] |  | tyrosinase inhibitory activity at the same level as that found in comparative drugs such as kojic acid, arbutin | 67.5%
CC1O[C@@H](OC[C@H]2OC(Oc3cc4c(O)cc(O)cc4[o+]c3-c3cc(O)c(O)c(O)c3)[C@H](O)C(O)C2O)C(O)C(O)[C@H]1O (stereo partly shown) [D3R (Example 2), delphinidin-3-rutinoside] |  | tyrosinase inhibitory activity at the same level as that found in comparative drugs such as kojic acid, arbutin | 70.1%
N[C@@H](CCC(=O)N[C@@H](CS)C(=O)NCC(=O)O)C(=O)O [Glutathione, reference compound] |  |  | 13.2%
O=c1cc(CO)occ1O [Kojic Acid, reference compound] |  |  | 34.7%
N[C@@H](CS)C(=O)O [L-Cysteine, reference compound] |  |  | 29.8%
